Measured values: patent US6939874B2, “Substituted pyrimidinyl derivatives and methods of use” (Amgen Inc., priority 2001, dated 2005)

The molecules below were run on 3T3 (assay: IGF-1-induced DNA synthesis (3H-thymidine incorporation)). Conditions: NIH3T3, activated with 50 ng/mL IGF-1, read-out: inhibited 3T3 proliferation.
Assay type: cell-based
Experimental: IGF-1-Induced DNA Synthesis.
Human tumor cell lines or a rat fibroblast cell line are plated out in flat-well plates in complete medium and allowed to adhere overnight. The cells are then starved in medium containing 0.1% bovine serum albumin (BSA) overnight, pre-incubated for 1 h with or without dilutions of compound, then activated overnight with 50 ng/mL insulin-like growth factor (IGF-1). Proliferation is determined by the level of ^3H-thymidine incorporation into DNA.

Compound | IC50
COc1cc(Nc2nccc(Nc3ccc4ncccc4c3)n2)cc(OC)c1OC [Example 14, N^4-quinolin-6-yl-N^2-(3,4,5-trimethoxyphenyl)-pyrimidine-2,4-diamine] | < 150 nM
COc1cc(Nc2nccc(Nc3cnc4ccccc4c3)n2)ccc1CCC(=O)N1CCCC1 [Example 149, 3-{2-Methoxy-4-[4-(quinolin-3-ylamino)-pyrimidin-2-ylamino]-phenyl}-1-pyrrolidin-1-yl-propanone] | < 150 nM
COc1cc(Nc2nccc(Nc3ccc4nc(C)ccc4c3)n2)cc(OC)c1OC [Example 118, N^4-(2-Methyl-6-quinolinyl)-N^2-(3,4,5-tris(methoxy)phenyl)-2,4-pyrimidinediamine] | < 150 nM
c1ccc2ncc(Nc3ccnc(Nc4ccc(N5CCOCC5)nc4)n3)cc2c1 [Example 49, N^2-(6-(4-morpholinyl)-3-pyridinyl)-N^4-(3-quinolinyl)-2,4-pyrimidinediamine] | < 150 nM
COc1cc(C)c(Nc2nccc(Nc3cnc4ccccc4c3)n2)cc1OC [Example 20, N^2-(3,4-dimethoxy-6-methylphenyl)-N^4-quinolin-3-yl-pyrimidine-2,4-diamine] | < 150 nM
COc1cc(Nc2nccc(Nc3cnc4ccccc4c3)n2)cc(OC)c1OC [Example 1, N^4-Quinolin-3-yl-N^2-(3,4,5-trimethoxyphenyl)pyrimidine-2,4-diamine] | < 150 nM
COc1cc(Nc2nccc(Nc3cnc4ccc(O)cc4c3)n2)cc(OC)c1OC [Example 135, N^4-(6-Hydroxy-quinolin-3-yl)-N^2-(3,4,5-tris(methoxy)phenyl)-2,4-pyrimidinediamine] | < 150 nM
COc1ccc(Nc2nccc(Nc3cnc4ccccc4c3)n2)cc1CCN(C)C [Example 100] | < 150 nM
COc1cc(C)c(Nc2nccc(Nc3cnc4ccc(OC(F)(F)F)cc4c3)n2)cc1OC [Example 140, N^2-(2-Methyl-4,5-dimethoxyphenyl)-N^4-(6-trifluoromethoxy-3-quinolinyl)-2,4-pyrimidinediamine] | < 150 nM
COc1ccc2ncc(Nc3ccnc(Nc4cc(OC)c(OC)c(OC)c4)n3)cc2c1 [Example 134, N^4-(6-Methoxy-quinolin-3-yl)-N^2-(3,4,5-tris(methoxy)phenyl)-2,4-pyrimidinediamine] | < 150 nM
COc1cc(Nc2nccc(Nc3cnc4ccccc4c3)n2)ccc1OCCN1CCN(c2nccc(Nc3cnc4ccccc4c3)n2)CC1 [Example 132, N^2-[3-Methoxy-4-(2-{4-[4-(quinolin-3-ylamino)-pyrimidin-2-yl]-piperazin-1-yl}-ethoxy)-phenyl]-N^4-quinolin-3-yl-pyrimidine-2,4-diamine] | < 150 nM
c1cc(Nc2nccc(Nc3ccc4ncccc4c3)n2)cc(-c2cnco2)c1 [Example 105, N^2-(3-(1,3-oxazol-5-yl)phenyl)-N^4-(6-quinolinyl)-2,4-pyrimidinediamine] | < 150 nM
CN1CCN(c2ccc(Nc3nccc(Nc4cnc5ccccc5c4)n3)cc2)CC1 [Example 84, N^2-(4-(4-methyl-1-piperazinyl)phenyl)-N^4-(3-qulnolinyl)-2,4-pyrimidinediamine] | < 150 nM
c1ccc2ncc(Nc3ccnc(Nc4ccc(OCCCN5CCCCC5)cc4)n3)cc2c1 [Example 98, N^2-[4-(3-Piperidin-1-yl-propoxy)-phenyl]-N^4-4-quinolin-3-yl-pyrimidine-2,4-diamine] | < 150 nM
CC(=O)N1CC(C)(C)c2ccc(Nc3nccc(Nc4cnc5ccccc5c4)n3)cc21 [Example 110, N^2-(1-acetyl-3,3-dimethyl-2,3-dihydro-1H-indol-6-yl)-N^4-(3-quinolinyl)-2,4-pyrimidinediamine] | < 150 nM
COc1cc(Nc2nccc(Nc3cnc4ccccc4c3)n2)ccc1C(N)=O [Example 94, 2-(Methoxy)-4-((4-(3-quinolinylamino)-2-pyrimidinyl)amino)benzamide] | < 150 nM
COc1cc(Nc2nccc(Nc3cnc4ccc(OC(F)(F)F)cc4c3)n2)cc(OC)c1OC [Example 139, N^2-(3,4,5-Tris(methoxy)phenyl)-N^4-(6-trifluoromethoxy-3-quinolinyl)-2,4-pyrimidinediamine] | < 150 nM
COc1cc(Nc2nccc(Nc3cnc4ccccc4c3)n2)ccc1/C=C/C(=O)N1CCCC1 [Example 148, 3-{2-Methoxy-4-[4-(quinolin-3-ylamino)-pyrimidin-2-ylamino]-phenyl}-1-pyrrolidin-1-yl-propenone] | < 150 nM
c1cc(Nc2nccc(Nc3cnc4ccccc4c3)n2)cc(-c2cnco2)c1 [Example 104, N^2-(3-(1,3-oxazol-5-yl)phenyl)-N^4-(3-quinolinyl)-2,4-pyrimidinediamine] | < 150 nM
c1ccc2ncc(Nc3ccnc(Nc4ccc(OCCN5CCCCC5)cc4)n3)cc2c1 [Example 99, N^2-(4-((2-(1-Piperidinyl)ethyl)oxy)phenyl)-N^4-(3-quinolinyl)-2,4-pyrimidinediamine] | < 150 nM
COc1ccc2ncc(Nc3ccnc(Nc4cc(OC)c(OC)cc4C)n3)cc2c1 [Example 137, N^4-(6-Methoxy-3-quinolinyl)-N^2-(2-methyl-4,5-dimethoxyphenyl)-2,4-pyrimidinediamine] | < 150 nM
COc1cc(Nc2nccc(Nc3cc4ccccc4c(OC)n3)n2)cc(OC)c1OC [Example 130, N^4-(1-Methoxy-isoquinolin-3-yl)-N^2-(3,4,5-trimethoxy-phenyl)-pyrimidine-2,4-diamine] | < 150 nM
CC(=O)c1ccc(Nc2nccc(Nc3cnc4ccccc4c3)n2)cc1 [Example 59, 1-(4-((4-(3-quinalinylamino)-2-pyrimidinyl)amino)phenyl)ethanone] | < 150 nM
COc1cc(Nc2nccc(Nc3cnc4ccccc4c3)n2)ccc1CCCN1CCCC1 [Example 150, N^2-[3-Methoxy-4-(3-pyrrolidin-1-yl-propyl)-phenyl]-N-4-quinolin-3-yl-pyrimidine-2,4-diamine] | < 150 nM
c1ccc2ncc(Nc3ccnc(Nc4ccc(N5CCOCC5)cc4)n3)cc2c1 [Example 48, N^2-(4-(4-morpholinyl)phenyl)-N -(3-quinolinyl)-2,4-pyrimidinediamine] | < 150 nM
COc1cc(Nc2nccc(Nc3cnc4ccccc4c3)n2)ccc1OCCC1CCN(c2nccc(Nc3cnc4ccccc4c3)n2)CC1 [Example 151, N^2-[3-Methoxy-4-(2-{1-[4-(quinolin-3-ylamino)-pyrimidin-2-yl]-piperidin-4-yl}-ethoxy)-phenyl]-N^4-quinolin-3-yl-pyrimidine-2,4-diamine] | < 150 nM
